The results in this text go back to patent US7884114B2, “Compounds” (Glaxo Group Limited, priority 2007, dated 2011).

Experiment [1] concerns the target T1, human H1 receptor (Homo sapiens, UniProt P35367).
T1 construct: expressed in transfected cells
Nature of the experiment: Histamine H1 functional antagonist assay (FLIPR): functional pKi. It is filed as cell-based. The note with it: CHO cells expressing human H1 receptor, histamine EC80, read-out: average pKi (pKb) at H1 (converted). The protocol:
(§1) The human H1 receptor is cloned using known procedures described in the literature [Biochem. Biophys. Res. Commun., 201(2):894 (1994)]. Chinese hamster ovary (CHO) cells stably expressing the human H1 receptor are generated according to known procedures described in the literature [Br. J. Pharmacol., 117(6):1071 (1996)].
10 μl of test compound, diluted to the required concentration in Tyrodes buffer+probenecid (or 10 μl Tyrodes buffer+probenecid as a control) is added to each well and the plate is incubated for 30 min at 37° C., 5% CO2.

Experiment [2] has as its target T1, human H1 receptor. Nature of the experiment: Histamine H1 functional antagonist assay (FLIPR): antagonist pA2. In kind it is cell-based. The protocol:
as §1
Histamine H1 Functional Antagonist Assay: Determination of Antagonist pA2 and Duration
The histamine H1 receptor expressing CHO cells are seeded into non-coated black-walled clear bottom 96-well tissue culture plates as described above.
Following overnight culture, growth medium is removed from each well, washed with 200 μl PBS and is replaced with 50 μl loading dye (250 μM Brilliant Black, 1 μM Fluo-4 diluted in Tyrodes buffer+probenecid (145 mM NaCl, 2.5 mM KCl, 10 mM HEPES, 10 mM D-glucose, 1.2 mM MgCl2, 1.5 mM CaCl2, 2.5 mM probenecid, pH adjusted to 7.40 with NaOH 1.0 M)). Cells are incubated for 45 min at 37° C. The loading buffer is removed and the cells are washed as above, and 90 μl of Tyrodes buffer+probenecid is added to each well. 10 μl of test compound, diluted to the required concentration in Tyrodes buffer+probenecid (or 10 μl Tyrodes buffer+probenecid as a control) is added to each well and the plate is incubated for 30 min at 37° C., 5% CO2.
The plates are then placed into a FLIPR™ (Molecular Devices, UK) to monitor cell fluorescence (λex=488 nm, λEM=540 nm) in the manner described in Sullivan et al., (In: Lambert D G (ed.), Calcium Signaling Protocols, New Jersey: Humana Press, 1999, 125-136) before and after the addition of 50 μl histamine over a concentration range of 1 mM-0.1 nM. […] The antagonist pA2 is calculated using the following standard equation: pA2=log(DR−1)−log [ B] where DR=dose ratio, defined as EC50antagonist-treated/EC50control and [B]=concentration of antagonist.

For experiment [3], the system named is histamine-induced nasal congestion. Nature of the experiment: Intranasal challenge method: whole body plethysmography, histamine-induced nasal congestion. It is filed as in vivo, Dunkin-Hartley guinea pigs. The note with it: for inhibition of response to histamine challenge: dosed intranasally at 1 mg/ml. Here is the method:
Intranasal Challenge Method: Whole Body Plethysmography
Female Dunkin-Hartley guinea pigs 150-250 g are sensitised twice daily for 5 days (week 1) with ovalbumin (OVA) and aluminium hydroxide (Al(OH)3 or Alum) in physiological saline, 25 μl/nostril. Solution is made up at 20 μg/ml OVA, 180 mg/ml Alum. During weeks 2 and 3 animals receive 25 μl/nostril of OVA (5 mg/ml) once daily. During Week 4 guinea pigs will be entered into study but are continually sensitized as per weeks 2 and 3 until the day before dosing with compound or vehicle.
(b) Compound Vehicle Pretreatment
Pretreatment with test compound is performed at various times prior to histamine challenge. Efficacy dose-response curves are determined 1 hr and/or 3 hr after dosing whereas duration of action may be studied up to 7 days post dose (for example, at 24 hours). Test compounds are formulated as solutions in 0.9% sterile saline or suspensions in 0.9% sterile saline/tween80.
Guinea pigs were anaesthetised with isoflurane (5%, 2-31/min O2), placed in a supine position, and 25 μl of test compound or vehicle dosed into each nostril using a Gilson pipette. After dosing, animals remain supine for at least 30 seconds (e.g. 60 seconds) during recovery from anaesthesia.
(c) Histamine Challenge Protocol
G. & Gelfand, E. W. (1997), Noninvasive measurement of airway responsiveness in allergic mice using barometric plethysmography., Am. J. Respir. Crit. Care Med., 156, 766-775.
After the stipulated pre-dose time has been reached, guinea pigs are re-anaesthetised with isoflurane and dosed with either 10 mM or 15 mM histamine or phosphate-buffered saline (PBS), (25 μl per nostril). […] These recordings are summed to give a cumulative AUC over 40 mins post histamine challenge for each animal. Data are analysed using ANOVA with post-hoc Fishers LSD test (general linear models, Statistica®) and finally Hochberg adjustment. Inhibition of histamine-induced congestion is determined by statistically significant differences between the mean responses of compound pre-treated groups compared to the vehicle pre-treated, histamine-challenged group.

Experiment [4] deals with T1, human H1 receptor. Nature of the experiment: Histamine H1 functional antagonist assay: antagonist duration after washout. In kind it is cell-based. To be noted: at one or more time points. Here is the method: The human H1 receptor is cloned using known procedures described in the literature [Biochem. Biophys. Res. Commun., 201(2):894 (1994)]. Chinese hamster ovary (CHO) cells stably expressing the human H1 receptor are generated according to known procedures described in the literature [Br. J. Pharmacol., 117(6):1071 (1996)]. […] Following the 30 min antagonist incubation period, the cells are washed two or three times with 200 μl of PBS and then 100 μl Tyrodes buffer is added to each well to initiate antagonist dissociation. […] After this period, the cells are challenged with histamine in the FLIPR™ as described above. […] The decrease in receptor occupancy over time approximates to a straight line and is analysed by linear regression. The slope of this straight line fit is used as an index of the dissociation rate of the antagonist. The dose ratios for antagonist treated cells and for antagonist treated and washed cells at each time point are used to calculate a relative dose ratio (rel DR) which is also used as an index of antagonist duration. Antagonists with long duration of action produce rel DR values close to 1, and antagonists with short duration of action produce rel DR values that approaches the dose ratio value obtained for antagonist treatment alone.

The mark [5] stands for this setting: CHO cells expressing H1 receptor, FLIPR, histamine concentration response curves, read-out: average pA2 (converted).

Counter-ions that a name gives are not always drawn. Like-named read-outs stand apart in the source and are kept apart here.

T1 sequence (P35367 whole entry): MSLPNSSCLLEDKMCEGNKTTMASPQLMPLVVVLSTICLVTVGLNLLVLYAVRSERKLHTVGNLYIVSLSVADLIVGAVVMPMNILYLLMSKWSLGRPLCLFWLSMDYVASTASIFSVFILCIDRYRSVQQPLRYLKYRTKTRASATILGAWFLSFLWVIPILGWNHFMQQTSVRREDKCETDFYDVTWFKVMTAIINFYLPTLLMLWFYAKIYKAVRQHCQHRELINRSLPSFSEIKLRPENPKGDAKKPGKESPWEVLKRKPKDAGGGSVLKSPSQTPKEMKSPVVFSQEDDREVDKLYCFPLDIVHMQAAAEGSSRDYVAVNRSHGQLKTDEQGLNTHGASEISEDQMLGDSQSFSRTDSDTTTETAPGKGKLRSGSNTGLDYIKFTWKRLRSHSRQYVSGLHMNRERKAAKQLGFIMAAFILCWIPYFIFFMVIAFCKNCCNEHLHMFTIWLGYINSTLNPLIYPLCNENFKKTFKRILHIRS

For `CCCCc1cc(OC2CCN(C3CCS(=O)(=O)C3)CC2)c2ncccc2c1` (stereo not drawn) [Example 13, 6-Butyl-8-{[1-(1,1-dioxidotetrahydro-3-thienyl)-4-piperidinyl]oxy}quinoline], in experiment [1], the Ki was under 100 nM. In addition, in experiment [2] (setting [5]), the Kb is under 100 nM. With `CCCCc1cc(OC2CCN(CCCCNS(=O)(=O)CC)CC2)c2ncccc2c1.Cl.Cl` [Example 23B, N-(4-{4-[(6-Butyl-8-quinolinyl)oxy]-1-piperidinyl}butyl)ethanesulfonamide, dihydrochloride salt], the “inhibition of response to histamine challenge” value in experiment [3] (3 hr before histamine challenge) and in experiment [3] (24 hr before histamine challenge) was “significantly (p<0.05) inhibited the response” in each case.

For the compound `CCCCc1cc(OC2CCN(CCCCCNS(C)(=O)=O)CC2)c2ncccc2c1` [Example 31, N-(5-{4-[(6-Butyl-8-quinolinyl)oxy]-1-piperidinyl}pentyl)methanesulfonamide, dihydrochloride salt], the Kb in experiment [2] (setting [5]) was under 1 nM. As to `CCCCc1cc(OC2CCN(CCCS(=O)(=O)C3CCCC3)CC2)c2ncccc2c1` [Example 8, 6-Butyl-8-({1-[3-(cyclopentylsulfonyl)propyl]-4-piperidinyl}oxy)quinoline, formate salt (1:1)], in experiment [2], the Kb was under 100 nM. On to `CCCCc1cc(OC2CCN(CCNS(=O)(=O)CC(C)C)CC2)c2ncccc2c1` [Example 15, N-(2-{4-[(6-Butyl-8-quinolinyl)oxy]-1-piperidinyl}ethyl)-2-methyl-1-propanesulfonamide, dihydrochloride salt], for which, in experiment [1], the Ki was under 100 nM. In experiment [2] (setting [5]), the Kb is under 10 nM. As for `CCCCc1cc(OC2CCN(CCCCCNS(=O)(=O)CC)CC2)c2ncccc2c1` [Example 32, N-(5-{4-[(6-Butyl-8-quinolinyl)oxy]-1-piperidinyl}pentyl)ethanesulfonamide, dihydrochloride salt], in experiment [2] (setting [5]), the Kb was under 1 nM.

On to `CCCCc1cc(OC2CCN(CCS(=O)(=O)C(C)(C)C)CC2)c2ncccc2c1` [Example 2, 6-Butyl-8-[(1-{2-[(1,1-dimethylethyl)sulfonyl]ethyl}-4-piperidinyl)oxy]quinoline, dihydrochloride salt], for which the Kb in experiment [2] (setting [5]) was under 1 nM. Still for that read-out and setting: in the case of `CCCCc1cc(O[C@@H]2CCN(CCCS(=O)(=O)C(C)(C)C)C2)c2ncccc2c1` [Example 12, 6-Butyl-8-[((3R)-1-{3-[(1,1-dimethylethyl)sulfonyl]propyl}-3-pyrrolidinyl)oxy]quinoline, dihydrochloride salt] it was under 100 nM. With `CCCCc1cc(OC2CCN(CCNS(=O)(=O)c3ccccc3)CC2)c2ncccc2c1` [Example 16, N-(2-{4-[(6-Butyl-8-quinolinyl)oxy]-1-piperidinyl}ethyl)benzenesulfonamide, dihydrochloride salt], the Ki in experiment [1] was under 100 nM. Further, in experiment [2] (setting [5]), the Kb is under 10 nM.

`CCCCCc1cc(OC2CCN(CCCS(=O)(=O)CC)CC2)c2ncccc2c1` [Example 11, 8-({1-[3-(Ethylsulfonyl)propyl]-4-piperidinyl}oxy)-6-pentylquinoline, dihydrochloride salt]: the Kb in experiment [2] (setting [5]) is under 1 nM. Turning to `CN1CCCC(n2nc(Cc3ccc(Cl)cc3)c3ccccc3c2=O)CC1` (stereo not drawn) [azelastine, reference compound], the “duration of action in intranasal challenge model” value in experiment [3] (administered at the same concentration (1 mg/ml intranasally)) is recorded as “failed to show a similar duration of action”. Turning to `CCCCc1cc(OC2CCN(CCCCNS(=O)(=O)CC(C)C)CC2)c2ncccc2c1` [Example 26, N-(4-{4-[(6-Butyl-8-quinolinyl)oxy]-1-piperidinyl}butyl)-2-methyl-1-propanesulfonamide, dihydrochloride salt], the “duration of action compared with azelastine” value in experiment [4] was “longer duration of action than azelastine”. In experiment [2], `CCCCc1cc(OC2CCN(CCCNC(=O)NCCC)CC2)c2ncccc2c1` [Example 36, N-(3-{4-[(6-Butyl-8-quinolinyl)oxy]-1-piperidinyl}propyl)-N′-propylurea, dihydrochloride salt] showed a Kb of under 1 nM. Consider `CCCCc1cc(OC2CCN(CCCNS(=O)(=O)C(C)C)CC2)c2ncccc2c1` [Example 19, N-(3-{4-[(6-Butyl-8-quinolinyl)oxy]-1-piperidinyl}propyl)-2-propanesulfonamide, dihydrochloride salt], for which the Kb in experiment [2] (setting [5]) is under 1 nM.

Turning to `CCCCc1cc(OC2CCN(CCCS(C)(=O)=O)CC2)c2ncccc2c1` [Example 3, 6-Butyl-8-({1-[3-(methylsulfonyl)propyl]-4-piperidinyl}oxy)quinoline, dihydrochloride salt], in experiment [2] (setting [5]), the Kb was under 10 nM. As to `CCCCc1cc(OC2CCN(CCCNS(=O)(=O)CCC)CC2)c2ncccc2c1` [Example 18, N-(3-{4-[(6-Butyl-8-quinolinyl)oxy]-1-piperidinyl}propyl)-1-propanesulfonamide, dihydrochloride salt], in experiment [2] (setting [5]), the Kb is under 1 nM. Still for that read-out and setting: then `CCCCc1cc(OC2CCN(CCCCNS(=O)(=O)CC3CCCCC3)CC2)c2ncccc2c1` [Example 28, N-(4-{4-[(6-Butyl-8-quinolinyl)oxy]-1-piperidinyl}butyl)-1-cyclohexyl methane sulfonamide, dihydrochloride salt], with under 10 nM.
